Data on two compounds can be found in patent US5840843A, “Synthetic polypeptides as inhibitors of HIV-1” (priority 1995, dated 1998).

Data set [1] relates to AZT-resistant mutant of HIV-1. Nature of the data set: Inhibition of infection by AZT-resistant HIV-1 mutant. As to conditions: FIG. 6. The data set is classed as cell-based. As to the method:
(§1) For virus inhibition assays, H9, MT-2 and U937 cells were used as target cells. Five HIV-1 isolates (IIIB, MN, RF, SF2, and an AZT-resistant mutant) were cultivated in MT-2 cells, collected, and aliquoted.
(§2) HIV-1 infectivity was determined by two distinct methods; an ELISA measuring HIV-1 core protein p24 production and a colorimetric assay for HIV-mediated cytopathogenesis. Briefly, 1×10^4 MT-2 cells in 96 well plates were infected with dilutions of HIV-1IIIB in 200 μl RPMI 1640 medium with 10% FBS. After 24 hrs., half of the culture medium was changed. On the fourth day after incubation at 37° C., 100 μl of culture supernatant was collected from each well and an equal volume of fresh medium was added to the wells. The collected supernatants were mixed with equal volumes of 5% Triton X-100 and assayed for p24 using a kit from Coulter Immunology (Hialeah, FL). On the sixth day post infection, an indicator XTT tetrazolium dye (1 mg/ml; 50μl/well; PolySciences, Inc., Warrington, Pa.) was added to the cells. After a 4 hr. period, intracellular formazan was determined calorimetrically at 450 nm. The percentage of cytopathogenesis was calculated using the following formula: [(OD450 in negative control-OD450 in experiment)/(OD450 in negative control-OD450 in positive control)] ×100.

The test system of a further data set is HIV-1 isolate SF2. Nature of the data set: Inhibition of infection by HIV-1 isolate SF2. As to conditions: FIG. 6. The class given is cell-based. As to the method: as §1, §2
For data set [2], the system named is HIV-1IIIB infected H9 cells. The data set is described as follows: Inhibition of fusion of HIV-1IIIB infected H9 cells with uninfected H9 cells (syncytium count). The class given is cell-based. As to the method: The inhibitory effect of the peptide of the present invention on the fusion of HIV-1 infected cells with uninfected cells was also determined. In brief, 1.25×10^4 HIV-1IIIB infected H9 cells were mixed with the peptide and an equal number of uninfected H9 cells.

In another data set the test system is HIV-1. Conditions: FIG. 7. As to the method:
Rabbit antiserum directed against this peptide was prepared. […] The mixture was tested for antiviral activity.

Data set [3] concerns HIV-1IIIB. The data set is described as follows: Inhibition of HIV-1IIIB replication in U937 cells (p24 production). The class given is cell-based. Conditions: monocytic cell line U937, FIG. 4. How it is done:
as §1, §2

In data set [4] the test system is HIV-1IIIB. The data set is described as follows: Inhibition of HIV-1IIIB-mediated cytopathogenesis in MT-2 cells (XTT colorimetric assay). The data set is classed as cell-based. How it is done:
as §1, §2
Additionally, studies were performed to determine whether or not any of the peptides could inhibit the cytopathogenesis mediated by HIV-1.

Another data set deals with MT-2 cells. The data set is described as follows: Cytotoxicity of peptides for MT-2 cells. As to conditions: for cytotoxicity: MT-2 cells. As to the method: Subsequently, cytotoxicity studies were performed using MT-2 cells at a final concentration of 12.5 μg/ml.
The next data set has as its system HIV-1 isolate RF. Nature of the data set: Inhibition of infection by HIV-1 isolate RF. The class given is cell-based. As to conditions: FIG. 6. As to the method: as §1, §2
The subject of a further data set is HIV-1 isolate MN. The data set is described as follows: Inhibition of infection by HIV-1 isolate MN. The data set is classed as cell-based. Conditions: FIG. 6. How it is done: as §1, §2
Data set [5] concerns HIV-1IIIB. The data set is described as follows: Inhibition of HIV-1IIIB replication in MT-2 cells (p24 ELISA). The class given is cell-based. As to the method:
as §1, §2
Twenty-nine peptides from HIV-1IIIB gp160 (gp120/gp41) and 21 peptides from V3 hypervariable loops of distinct HIV-1 isolates were screened for their inhibitory activity on HIV-1 replication and HIV-1-mediated cytopathogenesis in MT-2 cells.
Background: In an ELISA, binding on a coated surface is turned into a signal by an enzyme label.

Bridge positions count the residues as written; N and C are the ends. Ends that are not written are not given here. I, II: the chains in the order shown.

For the compound `Cc1cn([C@H]2C[C@H](N=[N+]=[N-])[C@@H](CO)O2)c(=O)[nH]c1=O` [AZT, 3'azido-3'deoxythymidine, reference compound], the “inhibition of infection (replication and cytopathogenesis)” value in data set [1] is “could not be effectively neutralized”.
As to “I: EWDREINNYTSLIHSLIEESQNQQEKNEQEGGC / II: EWDREINNYTSLIHSLIEESQNQQEKNEQEGGC (disulfide I:33-II:33) [peptide (637-666)]”, the “inhibition of infection (replication and cytopathogenesis)” value is “effectively inhibited infections” with HIV-1 isolate SF2; “effectively inhibited infections” in [1]; “effectively inhibited infections” in the data set on HIV-1 isolate RF; “effectively inhibited infections” in the data set on HIV-1 isolate MN; “effectively inhibited infections” in the data set with HIV-1IIIB [5] (HIV-1 isolate IIIB, FIG. 6). In addition, in [2] (HIV-1IIIB infected H9 cells, FIG. 5), the “ED50 for inhibition of cell fusion” value is given as 160.0 nM. The “inhibition of cell fusion, dimer compared with monomer” value in data set [2] (comparative assay, FIG. 8) is “much more effective”. Besides, in the data set on HIV-1 (peptide 1 μg/ml incubated with rabbit anti-(637-666) antiserum, 37° C., 30 minutes), the “inhibitory activity on p24 production after incubation with antiserum” value is reported as “significantly blocked”. For the same compound, the “inhibition of p24 production” value was “significantly inhibited p24 production” with HIV-1 (peptide 1 μg/ml, in the absence of antiserum) and “significantly inhibited p24 production” in the data set with HIV-1IIIB [3]. Moreover, the “ED50 for inhibition of cytopathogenesis mediated by HIV-1IIIB” value in the data set on HIV-1IIIB [4] (MT-2 cells, FIG. 5) is given as 142.0 nM. Besides, in the data set with HIV-1IIIB [4] (MT-2 cells, HIV-1IIIB, FIG. 2), the “inhibition of cytopathogenesis mediated by HIV-1” value was “markedly inhibited cytopathogenesis”. Also, in the data set with HIV-1IIIB [4] (comparative assay, FIG. 8), the “inhibition of HIV-1-mediated cytopathogenesis, dimer compared with monomer” value was “much more effective”. For the same compound, the cytotoxicity entry with MT-2 cells (concentration increased to 11.145 μM) is reported as “significant cytotoxicity remained undetectable”; with MT-2 cells (final concentration 12.5 μg/ml, FIG. 3) it was “did not exhibit any cytotoxicity”. Further, in the data set on MT-2 cells (colorimetric assay), the “50% cytotoxic dose (CD50)” value is recorded as > 11,145 nM. For the same compound, the “ED50 for inhibition of HIV-1IIIB replication (decrease of gag protein p24 production)” value in the data set on HIV-1IIIB [5] (MT-2 cells, FIG. 5) is recorded as 101.0 nM. For the same compound, the “inhibition of HIV-1 replication, dimer compared with monomer” value with HIV-1IIIB [5] (comparative assay, FIG. 8) is recorded as “much more effective”. Moreover, the “inhibition of HIV-1 replication (decrease of gag protein p24 synthesis)” value with HIV-1IIIB [5] (final concentration 12.5 μg/ml, MT-2 cells, HIV-1IIIB, FIG. 1) was “significantly inhibited HIV-1 replication”.
